Data taken from patent US20100190717A1, “USE OF MELANIN CONCENTRATING HORMONE AND MET-ENKEPHALIN AS THERAPEUTIC AGENTS” (priority 2007, published 2010).
Ends that are not written are not given here.

Tests used:
[1] = tested on: Interleukin-5 (IL-5) in spleen cells; assay: Th1/Th2 cytokine profiling assay: IL-5; type: cell-based, Balb/c mice; conditions: 10 micrograms per ml; Ovalbumin-restimulated spleen cells, 72 hours
Description: The Balb/c mice (originated in 1923, it is a popular strain and is used in many different research disciplines. Also classified as an inbred from the production of 20 or more successive brother-sister matings, the Balb/c mouse is albino and small in size) were immunized on Days 1, 15, and 29 with Ovalbumin (Ovalbumin is the main protein found in egg white, commonly used to stimulate an immunological reaction in test animals) in PBS (5 micrograms/injection). On day 50, spleens of the mice were harvested (3 weeks after last boost with Ovalbumin). Cells were cultured (2×10^5/well in triplicate) and incubated with culture medium or test peptides—10 micrograms per ml—for 30 min. Thereafter, additional Ovalbumin was added to the cells at 10 micrograms/ml for in vitro restimulation of the cells. 72 hours later, cell supernatants were harvested and assayed using the Becton Dickinson Mouse Th1/Th2 Cytokine CBA Kit. This kit can be used to measure Interleukin-2 (IL-2), Interleukin-4 (IL-4), Interleukin-5 (IL-5), Interferon-γ (IFN-γ), and Tumor Necrosis Factor-α (TNF-α) protein levels in a single sample. The kit performance has been optimized for analysis of physiologically relevant concentrations (μg/ml levels) of specific cytokine proteins in tissue culture supernatants and serum samples.

[2] = tested on: HCMV strain AD169; assay: HCMV plaque formation assay in MRC-5 cells; conditions: for inhibition of HCMV plaque formation compared to the virus control: 10 micrograms per ml, 7-10 days
[3] = tested on: Interleukin-4 (IL-4) in spleen cells; assay: Th1/Th2 cytokine profiling assay: IL-4; type: cell-based, Balb/c mice; conditions: 10 micrograms per ml; Ovalbumin-restimulated spleen cells, 72 hours
[4] = tested on: Human Peripheral Blood Mononuclear Cells (PBMC), B cell proliferation; assay: B cell proliferation assay (SAC plus Interleukin-2 stimulated PBMC, 3H-thymidine); type: cell-based; conditions: 10 micrograms per ml
Protocol: Human Peripheral Blood Mononuclear Cells (PBMC) were obtained from normal human donors. The B cell proliferation was induced by stimulation of the cells with the B cell mitogen Staphylococcus aureus Cowans I (SAC) plus Interleukin-2, either in the absence (positive proliferation control), or in the presence of test peptides—10 micrograms per ml—to examine their effects on the B cell response. 10^5/well PBMC were plated in 96-well microtiter plates and assayed in duplicate with the peptides. […] At the end of incubation time, the plates were harvested and the cells counted by liquid scintillation for the incorporation of ^3H-thymidine as a measure of B cell proliferation.

[5] = tested on: Interferon-γ (IFN-γ) in spleen cells; assay: Th1/Th2 cytokine profiling assay: IFN-γ; type: cell-based, Balb/c mice; conditions: 10 micrograms per ml; Ovalbumin-restimulated spleen cells, 72 hours
[6] = tested on: Primary Human endothelial cells (HUVEC); assay: Endothelial cell migration assay; type: cell-based; conditions: 10 micrograms per ml, 22 hours
Protocol: Thereafter, designated concentration of testing peptides—10 micrograms per ml—was added in duplicate wells.

[7] = tested on: LPS-induced TNF-alpha production in human macrophages; assay: TNF alpha production assay (LPS-stimulated macrophages, ELISA); type: cell-based; conditions: 10 micrograms per ml; LPS 200 ng/ml, overnight
Description: Not stimulated macrophages served as negative background control.

[8] = tested on: Tumor Necrosis Factor-α (TNF-α) in spleen cells; assay: Th1/Th2 cytokine profiling assay: TNF-α; type: cell-based, Balb/c mice; conditions: 10 micrograms per ml; Ovalbumin-restimulated spleen cells, 72 hours
[9] = tested on: hepatitis B virus (HBV) ayw strain; assay: HBV assay in HepG2-2.2.15 cells (TaqMan PCR of secreted HBV DNA); type: cell-based; conditions: 10 micrograms per ml; HepG2-2.2.15, six days
[10] = tested on: HUVEC; assay: Endothelial tube formation assay; type: cell-based, human; conditions: 10 micrograms per ml, 20 hours
Description: Positive control was vehicle only.

[11] = tested on: Human A549 cells; assay: Apoptosis prevention assay (C2 ceramide, Annexin-5); type: cell-based; conditions: 10 micrograms per ml, A549, 30 min pretreatment
Protocol: Human A549 cells (carcinomic human alveolar basal epithelial cells) were utilized in the experiments employing the Annexin-5 apoptosis assay. […] A549 cells were pretreated for 30 min with test peptides—10 micrograms per ml—followed by the exposure to C2 ceramide.

[12] = tested on: Interleukin-2 (IL-2) in spleen cells; assay: Th1/Th2 cytokine profiling assay: IL-2; type: cell-based, Balb/c mice; conditions: 10 micrograms per ml; Ovalbumin-restimulated spleen cells, 72 hours

Compound	IL-5 spleen cells; TH2 response (% of control) [1]	inhibition of HCMV plaque formation compared to the virus control [2]	IL-4 spleen cells; TH2 response (% of control) [3]	decrease of the proliferation of specifically stimulated human B-cells [4] [%]	IFNγ spleen cells; TH1 response (% of control) [5]	inhibition of the migration of human endothelial cells [6] [%]	inhibition of the LPS-induced TNF-alpha production in human macrophages [7] [%]	TNF-a spleen cells; TH1 response (% of control) [8]	inhibition of HBV replication on tested liver cells [9]	inhibition of the tube formation of endothelial cells [10] [%]	prevention (reduction) of the ceramide-induced apoptosis on human lung cells [11]	IL-2 spleen cells (% of control) [12]	antiviral activity of positive control compound (HCMV) ([2]; positive control)
Asp-Phe-Asp-Met-Leu-Arg-Cys-Met-Leu-Gly-Arg-Val-Tyr-Arg-Pro-Cys-Trp-Gln-Val-OH (DFDMLRCMLGRVYRPCWQV-OH; ends and bridges not checked) [peptide 1, melanin concentrating hormone (MCH), commercially available peptide]	78.8 % of control	did not inhibit	85.9 % of control	20.9	90.4 % of control	39	20.6	92.1 % of control	no effect	19	did not show any reducing or increasing effect	42.3 % of control	–
Nc1nc(O)c2ncn(COC(CO)CO)c2n1 [Ganciclovir, reference compound]	–	–	–	–	–	–	–	–	–	–	–	–	expected levels of antiviral activity
Tyr-Gly-Gly-Phe-Met-OH [peptide 2]	67.5 % of control	did not inhibit	100.4 % of control	12.0	64.9 % of control	–	28.4	89.3 % of control	no effect	25	17.4%	86.3 % of control	–
